In publication PMC3832641, “Inhibition of Leishmania (Leishmania) amazonensis and Rat Arginases by Green Tea EGCG, (+)-Catechin and (−)-Epicatechin: A Comparative Structural Analysis of Enzyme-Inhibitor Interactions” (PLoS ONE, 2013):

Columns and labels:
L. (L.) amazonensis = tested on: L. (L.) amazonensis; set-up: method as in PMID 22735546; settings: cited from earlier work
[1] = molecular target: T1, rat liver arginase (ARG-1) (Rattus norvegicus, UniProt P07824); test: Inhibition of rat liver arginase (ARG-1); type: biochemical; settings: for Inhibition of ARG-1: inhibitors at 10 µM or 100 µM; for inhibition at 1000 µM: inhibitors at 1000 µM
T1 construct: Rat liver arginase (ARG-1) was prepared by lysing 5 g of liver cells; from tissue; host or cells: rat liver
T1 sequence (P07824 1-323): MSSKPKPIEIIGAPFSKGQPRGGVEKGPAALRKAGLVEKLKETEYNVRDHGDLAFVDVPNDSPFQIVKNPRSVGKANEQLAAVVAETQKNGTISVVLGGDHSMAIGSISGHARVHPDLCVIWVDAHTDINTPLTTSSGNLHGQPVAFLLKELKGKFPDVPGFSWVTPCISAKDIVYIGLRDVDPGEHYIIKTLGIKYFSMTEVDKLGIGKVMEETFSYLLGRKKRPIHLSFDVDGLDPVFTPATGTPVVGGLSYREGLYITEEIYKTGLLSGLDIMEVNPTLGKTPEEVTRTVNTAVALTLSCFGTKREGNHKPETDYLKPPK

[2] = molecular target: T2, recombinant arginase from Leishmania amazonensis (ARG-L) (Leishmania amazonensis, UniProt O96394); test: biochemical
[3] = molecular target: T2, recombinant arginase from Leishmania amazonensis (ARG-L); test: ARG-L enzyme kinetics: Ki, Ki' and mechanism of inhibition (Dixon and Cornish-Bowden plots); type: biochemical; settings: for Ki': Cornish-Bowden plot, dissociation constant of enzyme-inhibitor-substrate complex; for Ki' / Ki: mean ± SEM; for Mode of inhibition: Dixon and Cornish-Bowden plots; for Ki: Dixon plot, dissociation constant of enzyme-inhibitor complex
Protocol: All reactions were performed in CHES buffer, 50 mM, pH 9.5, containing various concentrations of the substrate L-[…].5, 25, 50 and 100 mM) at pH 9.5. Inhibitors were used at three different concentrations similar to the IC50. The different substrate and inhibitor concentrations were obtained by serial dilution. A mixture, M1, containing L-arginine (pH 9.5) at double the desired concentration and a second mixture, M2, containing the enzyme (2000 units) diluted in 125 mM CHES buffer (pH 9.5) were prepared. The reaction mixture was obtained by homogenizing 50 μL of M1, 10 μL of inhibitor and adding 40 μL of M2. The addition of M2 was synchronized every 15 seconds, followed by immediate incubation in a water bath for 15 minutes at 37°C. The urea produced was analyzed as described above. […] Each constant was determined by calculating X values at the intersection points between two lines obtained by linear regression. […] Ki and Ki' is a positive value of the calculated X (Ki = -X). For three different values of S, three lines were drawn for 1/v against i (Dixon plot) and three lines for S/v against i (Cornish-Bowden plot). In the Dixon plot, the lines intersect at a point where i = -Ki and 1/v = [1- (Ki/Ki')]/Vmax; in the Cornish-Bowden plot, they intersect at a point where i = -Ki' and S/v = KM[1- (Ki'/Ki)]/Vmax. To make wizard Ki and Ki' calculations, linear data fitting was performed using Microsoft Office Excel v.2013. The linear equations were obtained by linear regression R^2>0.85. Linear regression retrieved the linear equation y(n) = […]), which calculates the reciprocal of the ratio of reaction 1/v (y(n)) as a function of variable inhibitor concentration (x(n)). The term b(n) is the reciprocal of the maximum ratio of reaction (1/Vmax) obtained at a fixed S concentration and variable i concentration. The Dixon and Cornish-Bowden plots were constructed using a mean of each point obtained from three independent experiments performed in duplicate. Three interception points were obtained by the combination of two linear equations for each time point. Then, Ki and Ki' were calculated using equation (7) and were expressed as mean values ± SEM (standard error of the mean).

[4] = tested on: L. (L.) donovani amastigotes; set-up: method as in PMID 16569852; settings: cited from earlier work

In the case of `O=C(OC1Cc2c(O)cc(O)cc2OC1c1cc(O)c(O)c(O)c1)c1cc(O)c(O)c(O)c1` (single isomer, unassigned; (-)) [EGCG, (−)-Epigallocatechin-3-gallate], the “Effect on parasite mitochondria” value (L. (L.) amazonensis) is given as “damages mitochondria, contributing to the death of the parasite”, the “Inhibition of ARG-1” value [1] is given as “did not significantly inhibit” and the inhibition at 1000 µM [1] is given as 29%. For the same compound, the IC50 [2] was 3.8 ± 0.1 µM, the “Ki'” value [3] was 12.5 ± 0.4 µM and the Mode of inhibition [3] was “mixed inhibitor”. The Ki [3] was 4 ± 0.5 µM and the “Leishmanicidal activity / effect on growth of the parasite” value (from here on “Leishmanicidal activity / effect”) [4] was “shows leishmanicidal activity”.

For `Oc1cc(O)c2c(c1)O[C@H](c1ccc(O)c(O)c1)[C@@H](O)C2` [(+)-catechin], the “Inhibition of ARG-1” value [1] is given as “did not significantly inhibit”, the inhibition at 1000 µM [1] is given as 26% and the “Leishmanicidal activity / effect” value [4] is given as “little effect on the growth of the parasite”.

In the case of `Oc1cc(O)c2c(c1)O[C@H](c1ccc(O)c(O)c1)[C@H](O)C2` [(−)-epicatechin], the “Inhibition of ARG-1” value [1] is listed as “did not significantly inhibit”, the inhibition at 1000 µM [1] is listed as 22% and the “Leishmanicidal activity / effect” value [4] is listed as “little effect on the growth of the parasite”.

For `O=C(O)c1cc(O)c(O)c(O)c1` [Gallic acid], the “Inhibition of ARG-1” value [1] was “did not significantly inhibit”, the inhibition at 1000 µM [1] was 20% and the IC50 [2] was 2.2 ± 0.2 µM. For the same compound, the “Ki'” value [3] was 7.2 ± 1.4 µM, the Mode of inhibition [3] was “Noncompetitive” and the Mode of inhibition ([3]; listed as gallic acid) was “noncompetitive inhibitor”. It also gave a Ki [3] of 7.2 ± 1.4 µM.
